From patent US5880130A, “4,6-dianilino-pyrimidine derivatives, their preparation and their use as tyrosine kinase inhibitors” (Zeneca Limited, priority 1993, dated 1999)

What was measured:
[1] = tested on: human naso-pharyngeal cancer cell line KB; assay: Test (b): inhibition of EGF-stimulated growth of the cancer cell line KB; format: cell-based; conditions: 72 h, KB cell growth with EGF (10 ng/ml), 3 days, MTT
Method: (b) An in vitro assay which determines the ability of a test compound to inhibit the EGF-stimulated growth of the human naso-pharyngeal cancer cell line KB.
KB cells were seeded into wells at a density of 1×10^4 -1.5×10^4 cells per well and grown for 24 hours in DMEH supplemented with 5% FCS (charcoal-stripped). Cell growth was determined after incubation for 3 days by the extent of metabolism of MTT tetrazolium dye to furnish a bluish colour. Cell growth was then determined in the presence of EGF (10 ng/ml) or in the presence of EGF (10 ng/ml) and a test compound at a range of concentrations. An IC50 value could then be calculated.

[2] = tested on: liver hepatocyte growth; assay: Test (c): inhibition of TGFα-stimulated liver hepatocyte growth in rats; format: in vivo; conditions: Rattus norvegicus, male rats, usually oral, TGFα 400 μg/kg subcutaneously, BrdU uptake, approximate ED50
Method: (c) An in vivo assay in a group of male rats which determines the ability of a test compound (usually administered orally as a ball-milled suspension in 0.5% polysorbate) to inhibit the stimulation of liver hepatocyte growth caused by the administration of the growth factor TGFα (400 μg/kg subcutaneously, usually dosed twice, 3 and 7 hours respectively after the administration of the test compound).
In a control group of rats, the administration of TGFα causes on average a 5-fold stimulation of liver hepatocyte growth.
Cell-growth in the control and test animals is determined as follows:
On the morning of the day after the dosing of the test compound (or 0.5% polysorbate in the control group), the animals are dosed with bromodeoxyuridine (BrdU; 100 mg/kg intraperitoneally). The animals are killed four hours later and the livers are excised. […] Further tests were carried out using a range of doses of the test compounds to allow the calculation of an approximate ED50 value for the inhibition of liver hepatocyte proliferation as determined by inhibition of the uptake of BrdU.

[3] = target: T1, EGF receptor tyrosine kinase (Homo sapiens, UniProt P00533); assay: Test (a): in vitro inhibition of EGF receptor tyrosine kinase; format: biochemical, human (A-431 cells, derived from human vulval carcinoma); conditions: A-431 cell enzyme, [γ-32P]ATP/peptide phosphorylation, 25° C. 10 minutes
T1 construct: Receptor tyrosine kinase was obtained in partially purified form from A-431 cells; endogenous in cells; host or cells: A-431 cells (human vulval carcinoma); Triton X-100 solubilised membrane fraction
Method: (a) An in vitro assay which determines the ability of a test compound to inhibit the enzyme EGF receptor tyrosine kinase. Receptor tyrosine kinase was obtained in partially purified form from A-431 cells (derived from human vulval carcinoma) by procedures related to those described by Carpenter et al., J. Biol. Chem., 1979, 254, 4884, Cohen et al., J. Biol. Chem., 1982, 257, 1523 and by Braun et al., J. Biol. Chem., 1984, 259, 2051.
A-431 cells were grown to confluence using Dulbecco's modified Eagle's medium (DMEM) containing 5% fetal calf serum (FCS). The obtained cells were homogenised in a hypotonic borate/EDTA buffer at pH 10.1. The homogenate was centrifuged at 400 g for 10 minutes at 0°-4° C. The supernatant was centrifuged at 25,000 g for 30 minutes at 0°-4° C. […]
The test compound/EGF mixture solution (5 μl) was added to the test enzyme solution (10 μl) and the mixture was incubated at 0-4° C. for 30 minutes. […] Radioactivity present in the filter paper was measured using a liquid scintillation counter (Sequence A). […]
Receptor tyrosine kinase inhibition was calculated as follows: [formula]
The extent of inhibition was then determined at a range of concentrations of test compound to give an IC50 value.

[4] = tested on: transplanted human mammary carcinoma which expresses EGF receptor tyrosine kinase; conditions: athymic nude mice; Toi et al. 1990; cited from earlier work
[5] = tested on: another carcinoma which does not express EGF receptor tyrosine kinase; conditions: Toi et al. 1990; cited from earlier work

T1 sequence (P00533 25-1210): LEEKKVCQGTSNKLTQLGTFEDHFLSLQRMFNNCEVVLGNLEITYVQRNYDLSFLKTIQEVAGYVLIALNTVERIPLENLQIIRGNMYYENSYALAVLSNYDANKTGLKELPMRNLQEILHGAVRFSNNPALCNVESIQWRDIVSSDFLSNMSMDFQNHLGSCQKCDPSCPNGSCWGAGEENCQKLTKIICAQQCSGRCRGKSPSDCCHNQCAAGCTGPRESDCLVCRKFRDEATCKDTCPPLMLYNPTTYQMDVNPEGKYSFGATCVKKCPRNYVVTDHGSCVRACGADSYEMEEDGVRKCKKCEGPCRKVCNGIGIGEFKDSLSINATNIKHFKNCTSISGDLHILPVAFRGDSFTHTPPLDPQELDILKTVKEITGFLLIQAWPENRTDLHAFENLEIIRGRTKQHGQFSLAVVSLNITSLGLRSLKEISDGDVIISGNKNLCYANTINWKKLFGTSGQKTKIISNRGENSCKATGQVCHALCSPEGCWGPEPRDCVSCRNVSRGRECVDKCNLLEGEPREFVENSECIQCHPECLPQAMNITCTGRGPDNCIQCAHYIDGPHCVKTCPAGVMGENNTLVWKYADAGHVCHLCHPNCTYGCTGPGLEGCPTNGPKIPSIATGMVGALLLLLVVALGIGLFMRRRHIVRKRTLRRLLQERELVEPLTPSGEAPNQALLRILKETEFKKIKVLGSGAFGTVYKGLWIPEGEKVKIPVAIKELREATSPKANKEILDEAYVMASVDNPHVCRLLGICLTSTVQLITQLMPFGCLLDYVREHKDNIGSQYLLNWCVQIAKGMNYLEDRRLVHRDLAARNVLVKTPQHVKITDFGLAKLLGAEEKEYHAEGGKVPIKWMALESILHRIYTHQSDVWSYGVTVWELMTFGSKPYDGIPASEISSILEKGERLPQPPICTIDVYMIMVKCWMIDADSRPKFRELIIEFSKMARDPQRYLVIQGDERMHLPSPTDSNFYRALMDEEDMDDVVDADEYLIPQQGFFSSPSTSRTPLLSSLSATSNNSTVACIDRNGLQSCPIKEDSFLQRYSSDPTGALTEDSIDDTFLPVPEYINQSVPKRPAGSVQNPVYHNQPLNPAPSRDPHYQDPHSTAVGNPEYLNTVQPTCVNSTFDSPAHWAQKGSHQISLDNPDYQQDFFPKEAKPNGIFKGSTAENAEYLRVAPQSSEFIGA

Row | IC50 [1] | IC50 [3] | SMILES | ED50 [2] | effect on growth of transplanted human mammary carcinoma expressing EGF receptor tyrosine kinase [4] | effect on growth of another carcinoma which does not express EGF receptor tyrosine kinase [5]
1 | 1100 nM | 240 nM | Cc1cccc(Nc2cc(Nc3cccc(C)c3)ncn2)c1 [4,6-di-(3'-methylanilino)pyrimidine] | < 12.5 mg/kg | – | –
2 | 1070 nM | – | Cc1cccc(Nc2cc(Nc3ccc(OCCO)cc3)ncn2)c1 [4-[4'-(2-hydroxyethoxy)anilino]6-(3'-methylanilino)pyrimidine] | < 12.5 mg/kg | – | –
3 | 310 nM | 10 nM | Cc1cccc(Nc2cc(Nc3ccc(OCC(O)CN(C)C)cc3)ncn2)c1 (stereo not drawn) [4-[4'-(3-dimethylamino-2-hydroxypropoxy)anilino]6-(3'-methylanilino)pyrimidine] | – | – | –
4 | – | – | O=CN/C=C/c1cc(O)ccc1O [erbstatin] | – | specifically attenuates the growth | without effect on the growth
